The target of assay [1] is T1, Free fatty acid receptor 1 (Homo sapiens, UniProt O14842). Nature of the assay: Agonist activity at human FFA1 expressed in CHO cells assessed as increase in intracellular Ca2+ flux at 1 uM measured for 90 secs by Fluo4-AM dye based FLIPR assay relative to control. Type of assay: functional, cell-based. Background: A change in cytosolic calcium serves as a functional read-out for many receptors and channels.

The subject of assay [2] is Mus musculus. The experiment in a line: Decrease in plasma glucose level in po dosed ICR mouse 60 mins before oral glucose challenge by OGTT method. Type of assay: functional, organism-based. To be noted: TDE = time-dependent effect.
The subject of assay [3] is Mus musculus. Nature of the assay: Anti-diabetic activity in ICR mouse assessed as reduction in blood glucose AUC at 50 mg/kg, po pretreated for 60 mins followed by glucose challenge measured after 120 mins by OGTT relative to control. It counts as functional. The arrangement: scale not given: the % may be the effect or the level left.
Assay [4] relates to Mus musculus. Nature of the assay: Antidiabetic activity in HFD/STZ-induced type2 diabetic C57BL/6 mouse assessed as decrease in blood glucose AUC at 20 mg/kg, po administered as single dose 60 mins prior to glucose challenge measured 120 mins post dose by OGTT relative to control. Type of assay: functional. Further details: scale not given: the % may be the effect or the level left.

Assay [5] has as its target T1, Free fatty acid receptor 1. The experiment in a line: Agonist activity at FFA1 (unknown origin).
In assay [6] the test system is Mus musculus. Nature of the assay: Anti-diabetic activity in ICR mouse assessed as reduction in blood glucose level at 50 mg/kg, po pretreated for 60 mins followed by glucose challenge measured after 120 mins by OGTT relative to control. Type of assay: functional. Further details: scale not given: the % may be the effect or the level left.
The test system of assay [7] is Mus musculus. Nature of the assay: Antidiabetic activity in HFD/STZ-induced type2 diabetic C57BL/6 mouse assessed as decrease in blood glucose AUC at 100 mg/kg, po administered as single dose 60 mins prior to glucose challenge measured 120 mins post dose by OGTT relative to control. It counts as functional. Further details: scale not given: the % may be the effect or the level left.

For assay [8], the system named is Mus musculus. Nature of the assay: Antidiabetic activity in HFD/STZ-induced type2 diabetic C57BL/6 mouse assessed as decrease in blood glucose excursion administered as single oral dose pretreated for 60 mins followed by glucose challenge after 120 mins by OGTT. It counts as functional.
Assay [9] deals with Mus musculus. The experiment in a line: Anti-diabetic activity in ICR mouse assessed as reduction in blood glucose level at 200 mg/kg, po pretreated for 60 mins followed by glucose challenge measured after 120 mins by OGTT relative to control. It counts as functional. Further details: scale not given: the % may be the effect or the level left.

Drawing on ChEMBL document CHEMBL4011595, “Design, synthesis and structure-activity relationship studies of novel free fatty acid receptor 1 agonists bearing amide linker” (Bioorg Med Chem, 2017), this text covers Activity and EC50 for 21 compounds.

Usually EC50 stands for the concentration that produces a half-maximal response.

T1 sequence (O14842 whole entry): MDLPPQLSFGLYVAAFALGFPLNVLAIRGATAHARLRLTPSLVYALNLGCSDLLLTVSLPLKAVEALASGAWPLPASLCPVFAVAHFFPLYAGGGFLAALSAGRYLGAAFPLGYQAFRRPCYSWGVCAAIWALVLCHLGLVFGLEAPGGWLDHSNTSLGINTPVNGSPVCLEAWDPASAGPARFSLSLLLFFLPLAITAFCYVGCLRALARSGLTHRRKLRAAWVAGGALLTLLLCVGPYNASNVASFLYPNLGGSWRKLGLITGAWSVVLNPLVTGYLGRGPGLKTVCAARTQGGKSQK

As for `O=C(O)CCc1ccc(NCc2cccc(Oc3ccccc3)c2)cc1`, the Activity in assay [1] amounted to 83.8%.

As to `Cc1ccccc1C(=O)Nc1ccc(CCC(=O)O)cc1`, the Activity in [1] was 5.67%.

With `O=C(O)CCc1ccc(NC(=O)c2cccc(Oc3ccccc3)c2)cc1`, the Activity in assay [1] was 34.3%; with Mus musculus [2], “Tde”; with Mus musculus [3], 12.8%. Take `O=C(O)c1ccc(NC(=O)c2ccc(C(=O)c3ccccc3)cc2)cc1`: the Activity in assay [1] was determined as 15.3%. Consider `Cc1cc(OCCCS(C)(=O)=O)cc(C)c1-c1cccc(COc2ccc3c(c2)OC[C@H]3CC(=O)O)c1` [FASIGLIFAM], for which the Activity in the assay on Mus musculus [4] was 39.1%; in assay [1], 96.3%. As to `O=C(O)CCc1ccc(NC(=O)c2ccsc2)cc1`, the Activity in [1] was 15.4%. On the same count and under the same terms, as for `O=C(O)CCc1ccc(NC(=O)c2cccs2)cc1`, the figure is 13.8%.

On to `CC(C)(C)c1ccc(C(=O)Nc2ccc(CCC(=O)O)cc2)cc1`, for which the Activity in assay [1] was 21.4%; in the assay with Mus musculus [2] it was “Tde”. For the compound `Cc1cccc(C(=O)Nc2ccc(CCC(=O)O)cc2)c1`, the Activity in assay [1] was 29.4%; in the assay on Mus musculus [2], “Tde”; in the assay with Mus musculus [3], 20.3%. Turning to `O=C(O)CCc1ccc(NC(=O)c2cccc(Cl)c2)cc1`, the Activity in assay [1] is 25.4%; in the assay on Mus musculus [2] it was “Tde”. On to `CC#C[C@@H](CC(=O)O)c1ccc(NC(=O)C(=O)Nc2cccc(C(C)(C)C)c2)cc1`, for which, in [5], a half-maximal effect (EC50) was put at 4 nM. In the case of `O=C(O)CCc1ccc(NC(=O)c2cccnc2)cc1`, the Activity in assay [1] worked out at 4.29%. Turning to `Cc1cccc(C)c1-c1cccc(C(=O)Nc2ccc(CCC(=O)O)cc2)c1`, the Activity in the assay on Mus musculus [6] was 23.7%; in assay [1], 45.8%; with Mus musculus [7] it was 29.1%; in the assay with Mus musculus [2], “Tde”; in the assay on Mus musculus [8] it was “Dose-dependent effect”; in the assay on Mus musculus [3], 23.7%.

On to `COc1ccccc1C(=O)Nc1ccc(CCC(=O)O)cc1`, for which the Activity in assay [1] was found to be 1.26%. On the same count and under the same terms, as for `O=C(O)CCc1ccc(NC(=O)c2ccccc2[N+](=O)[O-])cc1`, the figure is 0.19%; as for `O=C(O)CCc1ccc(NC(=O)c2ccccc2Cl)cc1`, 7.73%; as for `Cc1ccc(C(=O)Nc2ccc(CCC(=O)O)cc2)cc1`, 19.4%. In the case of `CN(C)C(=N)NC(=N)N` [METFORMIN], in the assay with Mus musculus [9], the Activity worked out at 27.8%. Take `O=C(O)CCc1ccc(NC(=O)c2ccc(Cl)cc2)cc1`: the Activity in assay [1] came to 17.9%. On the same count and under the same terms, as for `COc1cccc(C(=O)Nc2ccc(CCC(=O)O)cc2)c1`, the figure is 19.8%; as for `O=C(O)CCc1ccc(NC(=O)c2ccccc2)cc1`, 18.8%.
